Measured values reported in ChEMBL document CHEMBL1201862, “PubChem BioAssay data set” (2004).
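How tested: cells in 96-well plates exposed to compound for 48 hours at five concentrations. Abbreviation: GI50, concentration required for 50% inhibition of growth.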 Calls of active or inactive are those of the source. Rule as the data show it: active = GI50 up to about 1.1 µM and inactive = higher.

Legend:
Test in all cases: DTP human tumour cell line panel, 48 h
[1] = tested on: SNB-75
[2] = tested on: KM12
[3] = tested on: HT-29
[4] = tested on: UACC-62
[5] = tested on: SK-MEL-5
[6] = tested on: MOLT-4
[7] = tested on: CAKI-1
[8] = tested on: OVCAR-5
[9] = tested on: UO-31
[10] = tested on: HOP-62
[11] = tested on: HCT-15
[12] = tested on: MDA-MB-435
[13] = tested on: SK-OV-3
[14] = tested on: TK-10
[15] = tested on: SK-MEL-28
[16] = tested on: MDA-MB-231
[17] = tested on: NCI-H23
[18] = tested on: OVCAR-3
[19] = tested on: SF-539
[20] = tested on: Malme-3M

Compound | GI50 [1] | GI50 [2] | GI50 [3] | GI50 [4] | GI50 [5] | GI50 [6] | GI50 [7] | GI50 [8] | GI50 [9] | GI50 [10] | GI50 [11] [µM] | GI50 [12] | GI50 [13] | GI50 [14] | GI50 [15] | GI50 [16] | GI50 [17] | GI50 [18] | GI50 [19] | GI50 [20]
Cc1ccnc2nc(-c3ccc(F)cc3)cc(O)c12 | 29.6 µM (inactive) | 7.23 µM (inactive) | 18.7 µM (inactive) | 16 µM (inactive) | 22.6 µM (inactive) | > 71.4 µM (inactive) | 36.2 µM (inactive) | > 100 µM (inactive) | > 70.5 µM (inactive) | 68.7 µM (inactive) | 5.08 | 3.15 µM (inactive) | > 86.9 µM (inactive) | > 97.3 µM (inactive) | 77.3 µM (inactive) | > 80.7 µM (inactive) | 75.7 µM (inactive) | 67.6 µM (inactive) | 57.3 µM (inactive) | 92.7 µM (inactive)
Cc1cc(Nc2ccc(S(=O)(=O)O)c3cc(S(=O)(=O)O)cc(S(=O)(=O)O)c23)c2ccccc2n1 | > 100 µM (inactive) | > 100 µM (inactive) | > 100 µM (inactive) | > 100 µM (inactive) | > 100 µM (inactive) | > 100 µM (inactive) | > 100 µM (inactive) | > 100 µM (inactive) | > 100 µM (inactive) | > 100 µM (inactive) | > 100 | > 100 µM (inactive) | > 100 µM (inactive) | > 100 µM (inactive) | > 100 µM (inactive) | > 100 µM (inactive) | > 100 µM (inactive) | > 100 µM (inactive) | > 100 µM (inactive) | > 100 µM (inactive)
c1ccc(-c2c3c(nc4c2CC[C@H]4NC2=NCCN2)[C@@H](NC2=NCCN2)CC3)cc1 | 58.1 µM (inactive) | > 100 µM (inactive) | > 100 µM (inactive) | > 100 µM (inactive) | > 100 µM (inactive) | 56.2 µM (inactive) | > 100 µM (inactive) | > 100 µM (inactive) | > 100 µM (inactive) | > 100 µM (inactive) | > 100 | > 100 µM (inactive) | > 100 µM (inactive) | > 100 µM (inactive) | > 100 µM (inactive) | > 100 µM (inactive) | > 100 µM (inactive) | 65.8 µM (inactive) | 27.4 µM (inactive) | > 100 µM (inactive)
COc1cc(CNC(=O)CCCCCCCC/C=C/Br)ccc1O | > 10 µM (inactive) | > 10 µM (inactive) | > 10 µM (inactive) | > 10 µM (inactive) | > 10 µM (inactive) | > 10 µM (inactive) | > 10 µM (inactive) |  | > 10 µM (inactive) | > 10 µM (inactive) | > 10 | > 10 µM (inactive) | > 10 µM (inactive) | > 10 µM (inactive) | > 10 µM (inactive) | > 10 µM (inactive) | > 10 µM (inactive) | > 10 µM (inactive) | > 10 µM (inactive) | > 10 µM (inactive)
O=c1c2cn[nH]c2nc2scc(-c3ccc(Cl)cc3)n12 | 16.9 µM (inactive) | > 100 µM (inactive) | > 100 µM (inactive) | > 100 µM (inactive) | > 100 µM (inactive) | > 100 µM (inactive) | > 100 µM (inactive) | > 100 µM (inactive) | > 100 µM (inactive) | > 100 µM (inactive) | > 100 | > 100 µM (inactive) | > 100 µM (inactive) | > 100 µM (inactive) | > 100 µM (inactive) | > 100 µM (inactive) | > 100 µM (inactive) | > 100 µM (inactive) | > 100 µM (inactive) | > 100 µM (inactive)
Cc1ccc2nnc(NS(=O)(=O)c3cc(C)c(Cl)cc3S)n2n1 | > 100 µM (inactive) | > 100 µM (inactive) | > 100 µM (inactive) | > 100 µM (inactive) | > 100 µM (inactive) | > 100 µM (inactive) | > 100 µM (inactive) | > 100 µM (inactive) | 68.5 µM (inactive) | > 100 µM (inactive) | > 100 | > 100 µM (inactive) | > 100 µM (inactive) | > 100 µM (inactive) | > 100 µM (inactive) | > 100 µM (inactive) |  | > 100 µM (inactive) | > 100 µM (inactive) | > 100 µM (inactive)
Cc1cc2ncn(C3CCCO3)c2cc1C (stereo not drawn) | 71.6 µM (inactive) | 74.5 µM (inactive) | > 100 µM (inactive) | > 100 µM (inactive) | > 100 µM (inactive) | > 100 µM (inactive) | > 100 µM (inactive) | > 100 µM (inactive) | 28.3 µM (inactive) | > 100 µM (inactive) | > 100 | > 100 µM (inactive) | > 100 µM (inactive) | > 100 µM (inactive) | > 100 µM (inactive) | > 100 µM (inactive) | > 100 µM (inactive) | > 100 µM (inactive) | > 100 µM (inactive) | > 100 µM (inactive)
CC1OC(OC2C(OC(=O)[C@]34CCC(C)(C)C[C@H]3C3=CC[C@@H]5[C@@]6(C)CC[C@H](OC7OC(CO)C(O)C(O)C7OC7OC(CO)C(O)C(O)C7O)C(C)(C)[C@@H]6CC[C@@]5(C)[C@]3(C)CC4)OCC(O)C2O)C(O)C(OC2OCC(O)C(O)C2O)C1OC1OCC(O)C(OC2OCC(O)C(O)C2O)C1O (stereo partly drawn) | 18.7 µM (inactive) | 7.31 µM (inactive) | 4.23 µM (inactive) | 13.5 µM (inactive) | 9.4 µM (inactive) | 13.2 µM (inactive) | 6.67 µM (inactive) | 8.55 µM (inactive) | 2.14 µM (inactive) | 14 µM (inactive) | 22.7 | 2.26 µM (inactive) | 32.2 µM (inactive) | 13.4 µM (inactive) | 2.37 µM (inactive) | 7.6 µM (inactive) | 6.37 µM (inactive) | 23.4 µM (inactive) | 67.8 µM (inactive) | 4.46 µM (inactive)
COc1ccc2c(C)cc(N/N=C/c3ccc(OC)c4ccccc34)nc2c1 | 22.9 µM (inactive) | 13.2 µM (inactive) | 7.82 µM (inactive) | 14.3 µM (inactive) | 16.4 µM (inactive) | 3.97 µM (inactive) | 13.4 µM (inactive) | 14 µM (inactive) | 12.6 µM (inactive) | 18.2 µM (inactive) | 10.1 | 11.2 µM (inactive) | 17.3 µM (inactive) | 17.3 µM (inactive) | 16.1 µM (inactive) | 4.91 µM (inactive) | 16.5 µM (inactive) | 2.96 µM (inactive) | 15.8 µM (inactive) | 17.5 µM (inactive)
Cc1cccc(Nc2nc3ccccc3nc2NS(=O)(=O)c2ccc(N)cc2)c1 | 52.8 µM (inactive) | 26.7 µM (inactive) | 48.3 µM (inactive) | 38.4 µM (inactive) | 35.5 µM (inactive) | 11.7 µM (inactive) | 30.7 µM (inactive) | > 100 µM (inactive) | 16.2 µM (inactive) | 25.7 µM (inactive) | 34.1 | 38.6 µM (inactive) | 54.8 µM (inactive) | 32.5 µM (inactive) | 27.7 µM (inactive) | 36.3 µM (inactive) | 5.61 µM (inactive) | 38.5 µM (inactive) | 19.1 µM (inactive) | 78.7 µM (inactive)
[O-]/[N+](=C\c1ccccc1OC(=S)S)c1ccc(Cl)cc1 | > 100 µM (inactive) | 26.7 µM (inactive) | 22.4 µM (inactive) | 11.9 µM (inactive) | 0.224 µM (active) | 5.46 µM (inactive) | 13.6 µM (inactive) | 21.2 µM (inactive) | 19.8 µM (inactive) | 47.9 µM (inactive) | 15.7 | 15.7 µM (inactive) | > 100 µM (inactive) | > 100 µM (inactive) | 3.57 µM (inactive) | 13.7 µM (inactive) | 23.8 µM (inactive) | 18.7 µM (inactive) | 35.6 µM (inactive) | > 100 µM (inactive)
CC(=O)Oc1c(C)c2c(c3ccccc13)OC(C)(C)C2 | 19 µM (inactive) | 14.5 µM (inactive) | 18.1 µM (inactive) | 16.3 µM (inactive) | 10.5 µM (inactive) | 15.1 µM (inactive) | 24.2 µM (inactive) | 19.5 µM (inactive) | 18.2 µM (inactive) | 20.1 µM (inactive) | 17 | 17.2 µM (inactive) | 30.5 µM (inactive) | 18.6 µM (inactive) | 18.8 µM (inactive) | 23.9 µM (inactive) | 14 µM (inactive) | 22.5 µM (inactive) | 20.4 µM (inactive) | 16.3 µM (inactive)
COC1OC(CO)C(O)C(OC(=O)c2cc(O)c(O)c(O)c2)C1OC(=O)c1cc(O)c(O)c(O)c1 (stereo not drawn) | > 100 µM (inactive) | > 100 µM (inactive) | 65 µM (inactive) | > 10 µM (inactive) | 36.7 µM (inactive) | 79.4 µM (inactive) | 48.3 µM (inactive) | > 100 µM (inactive) | > 100 µM (inactive) | 91 µM (inactive) | 66.2 | 33.4 µM (inactive) | > 100 µM (inactive) | > 100 µM (inactive) | > 100 µM (inactive) | > 100 µM (inactive) | > 100 µM (inactive) | > 100 µM (inactive) | 83.6 µM (inactive) | > 100 µM (inactive)
COc1ccc2c(c1)CCCN2S(=O)(=O)c1ccccc1[N+](=O)[O-] | 24.1 µM (inactive) | 10.7 µM (inactive) | 21.4 µM (inactive) | 47.8 µM (inactive) | 41.8 µM (inactive) | 14.4 µM (inactive) | > 89.5 µM (inactive) | 84.3 µM (inactive) | 43 µM (inactive) | 47.5 µM (inactive) | 14.3 | 2.99 µM (inactive) | 24 µM (inactive) | 54.8 µM (inactive) | 68.5 µM (inactive) | 53.5 µM (inactive) | 46.2 µM (inactive) | 47.8 µM (inactive) | 27.7 µM (inactive) | 40.8 µM (inactive)
